The test system of data set [1] is green peach aphid (Myzus persicae). Kind of data set: Test 1: control of green peach aphid through systemic means (artificial diet, 96-well microtiter plates). The class given is in vivo. Particulars: 3 days. An excerpt:
If present, synergism can be described as an interaction where the combined effect of two or more compounds is greater than the sum of the individual effects of each of the compounds. The presence of a synergistic effect in terms of percent control, between two mixing partners (X and Y) can be calculated using the Colby equation (Colby, S. R., 1967, Calculating Synergistic and Antagonistic Responses in Herbicide Combinations, Weeds, 15, 20-22):
When the observed combined control effect is greater than the expected combined control effect (E), then the combined effect is synergistic.
For evaluating control of green peach aphid (Myzus persicae) through systemic means the test unit consisted of 96-well-microtiter plates containing liquid artificial diet under an artificial membrane.
The compounds or mixtures were formulated using a solution containing 75% water and 25% DMSO. Different concentrations of formulated compounds or mixtures were pipetted into the aphid diet, using a custom built pipetter, at two replications.
For experimental mixtures in these tests identical volumes of both mixing partners at the desired concentrations respectively, were mixed together.
After application, 5-8 adult aphids were placed on the artificial membrane inside the microtiter plate wells. The aphids were then allowed to suck on the treated aphid diet and incubated at […], 50±5% RH for 3 days. Aphid mortality and fecundity was then visually assessed. For the mixture tested the results are listed in the tables for Example E2-1 and E2-2.

A short description of a further data set: Degradation in soil. Format: physicochemical. Particulars: neutral sandy loam soil LUFA 5M; incubated at 27° C. and 40% of max. water-holding capacity over 90 days; DT50 referring to 20° C.; SFO or DFOP kinetics. As for the experimental part: Degradation of the compound (I-B-131) and compound (I-B-33) in soil was compared. The two compounds were incubated in neutral sandy loam soil (LUFA 5M) at 27° C. and 40% of the max. water-holding capacity over a period of 90 days. Soil extraction was carried out with acetonitrile followed by acetonitrile/water (1/1) and the extracted test compounds were quantified by HPLC-MS. The following DT50 values (referring to 20° C.) were obtained assuming single first order (SFO) or double first order in parallel (DFOP) kinetics: […]

Data set [2] deals with Diamide-resistant diamond back moth (Plutella xylostella), Cebu strain. The conditions noted are these: third instar larvae, mortality 3 days after inoculation; comparing LC50s and LC90s.
Data set [3] deals with Neonicotinoid and pyrethroid resistant strain of the green peach aphid (Myzus persicae). Nature of the data set: B2 a) Myzus persicae mixed population, contact activity, curative on pea seedlings; Resistance Factor RF80. Format: in vivo. Particulars: FRC-P strain (neonicotinoid resistant) vs standard screening strain of Myzus persicae; lowest concentration giving greater than 80% mortality, 6 days after treatment. From the text: B2: Determination of the cross-resistance status of compounds I when applied against agronomically important pest species resistant to one or more commercially available class of insecticide.
(§1) The level of resistance and therefore the impact on the performance of the insecticide can be measured by the use of a ‘Resistance Factor’. The resistance factor can be calculated by dividing the concentration of an insecticide that provides a set level of mortality (i.e. 80 percent) for the ‘resistant’ strain with the concentration of the same insecticide that provides the same level of mortality for the ‘susceptible’ insect of the same species and life-stage. Although there are no set rules, a low value (1-10) indicates no cross-resistance and only natural levels of variation and a high value (50+) provides strong evidence of cross-resistance.
a) Neonicotinoid and Pyrethroid Resistant Strain of the Green Peach Aphid (Myzus persicae)
Myzus persicae strains utilised: • Standard screening strain of Myzus persicae (Neonicotinoid susceptible) • FRC-P strain of Myzus persicae (Neonicotinoid resistant) Bioassay Method
Myzus persicae: mixed population, contact activity, curative on pea seedlings
Pea seedlings, infested with an aphid population of mixed ages, are treated with the test solutions in a spray chamber. 6 days after treatment, samples are checked for mortality. […]

The subject of data set [4] is Neonicotinoid resistant strain of the brown planthopper (Nilaparvata lugens). Kind of data set: B2 b) Nilaparvata lugens larvicide, feeding/contact activity, preventive on rice seedlings; Resistance Factor RF80. The conditions noted are these: IND3 strain (neonicotinoid resistant) vs standard screening strain of Nilaparvata lugens; lowest concentration giving greater than 80% mortality. Format: in vivo.
Source text: as §1
b) Neonicotinoid Resistant Strain of the Brown Planthopper (Nilaparvata lugens)
Nilaparvata lugens strains utilised: • Standard screening strain of Nilaparvata lugens (Neonicotinoid susceptible) • IND3 strain of Nilaparvata lugens (Neonicotinoid resistant) Bioassay Method: Nilaparvata lugens: Larvicide, Feeding/Contact Activity, Preventive
Rice seedlings are treated with the diluted test solutions in a turn table spray chamber. After drying, they are infested with 20 N3 nymphs. 6 and 12 days after the treatment samples are checked for mortality, growth regulation, and effects on the Fi generation.
The Resistance Factor (RF80) of different compounds is tested. […]

The subject of data set [5] is ALM07 strain (neonicotinoid and pyrethroid resistant), adult whitefly.
Source text: Bioassay Method Bemisia tabaci Residual Activity, Preventive Egg Lay

Here are results for six compounds from patent US9765052B2, “Anthranilamide compounds, their mixtures and the use thereof as pesticides” (BASF SE, priority 2013, dated 2017).

Regarding `CC(NC(=O)c1cc(Cl)cc(Br)c1NC(=O)c1cc(Br)nn1-c1ncccc1Cl)C1CC1` (stereo not shown) [I-A-1], the “Average Control %” value in data set [1] (Example E2-1, 0.4 ppm) was found to be 0%; in data set [1] (Example E2-2, 0.8 ppm), 0%.

Take `CNC(=O)c1cc(Cl)cc(C)c1NC(=O)c1cc(Br)nn1-c1ncccc1Cl` [I-B-33, chlorantraniliprole]: the “Average Control %” value in data set [1] (Example E2-2, 0.4 ppm) was 0%. The compound further returned a DT50 in “Degradation in soil” of 89 days.

On to `Cc1cc(Cl)cc(C(N)=O)c1NC(=O)c1cc(C(F)(F)F)nn1-c1ncccc1Cl` [I-B-131, N-(2-carbamoyl-4-chloro-6-methyl-phenyl)-2-(3-chloro-2-pyridyl)-5-(trifluoromethyl)pyrazole-3-carboxamide], for which the DT50 in the data set “Degradation in soil” came to 41 days.

In the case of `CC1=NNC(=O)N(/N=C/c2cccnc2)C1` [Pymetrozine, pymetrozine], the “Average Control %” value in data set [1] (Example E2-1, 80 ppm) amounted to 0%.

Turning to `Cc1cc(C(F)(C(F)(F)F)C(F)(F)F)ccc1NC(=O)c1cccc(I)c1C(=O)NC(C)(C)CS(C)(=O)=O` [flubendiamide], in data set [2], the “Efficacy against field collected Cebu strain of Plutella xylostella” value is given as “only weak efficacies”.

`CN1COCN(Cc2cnc(Cl)s2)/C1=N\[N+](=O)[O-]` [thiamethoxam]: the “Resistance Factor (RF80)” value is above 250 in data set [3] and above 64 in data set [4]. Moreover, in data set [5], the “RF in residual mortality bioassay of adult whitefly” value is on record as above 250.
